Results on 4 molecules are retold here after US6998234B2, “Methods for cancer prognosis and diagnosis relating to tumor vascular endothelial cells” (Oncotech, Inc., priority 2000, dated 2006).

One assay concerns endothelial cells. The note with it: from Mendel et al. 2000 (SU5416) and Laird et al. 2000 (SU6668); read-out: predetermined IC50 concentration; cited from earlier work.
In assay [1] the test system is HUVEC. As to the kind of experiment: Dil-ac-LDL uptake by HUVEC. The assay is classed as cell-based, human. The note with it: HUVEC on collagen I, 48 hours, 10 μM docetaxel, FIG. 12. From the text: The uptake of Dil-ac-LDL (Biomedical Technologies, Inc., Stoughton Mass.) was utilized to identify and characterize differentiated VEC using fluorescent microscopy on live cell monolayers. After uptake, Dil-ac-LDL is degraded by lysosomal enzymes in endothelial cells, with the Dil fluorescent probe accumulating in the intracellular membrane. (Pitas et al., 1985, J. Cell. Biol. 100:103-117). Discrimination using this system is high, because no other cell type, with the exception of macrophages, is labeled to the same degree as VEC (Voura et al, 1998, Microsc. Res. Tech. 43: 265-275; Pitas et al., 1985, J. Cell Biol. 100:103-117), and macrophages can be excluded from the analysis and sorting protocols with CD45 staining. In addition, macrophages can be differentiated from VEC because the […] is more brightly labeled with Dil-ac-LDL.
(§1) HUVEC were cultured for 48 hours on collagen I and treated with either 10 μM docetaxel, 1 μM docetaxel, or 10 μM thalidomide. The effect on cell morphology was observed by phase contrast microscopy. In addition, apoptotic HUVEC cultured on collagen in the presence of 10 μM docetaxel were stained with AnnexinV-FITC (green fluorescence) and PI (red fluorescence) and visualized with immunofluorescent photomicrography. […] An atypical pattern of Dil-ac-LDL accumulation in drug-treated cells was observed under high magnification.

For assay [2], the system named is HUVEC. In words: HUVEC tubulogenesis on MATRIGEL
The note with it: three hours after cell transfer. Type of assay: cell-based, human. From the text:
Functional tests were also used to characterize the differentiation status of VEC cultured in different growth environments in vitro, as previously described. (Hewett et al., 1993, In Vitro Cell Dev. Biol. 29A: 823-830; Benelli et al., 1999, Int. J. Biol Markers 14: 243-246). MATRIGEL, a three-dimensional support matrix that is composed of solubilized membranes extracted from Engelbreth-Holm-Swarm (“EHS”) mouse sarcoma cells, was used because of the ability of mammalian VEC derived from different tissue sources to form capillary-like tubules and generate branched and forked networks in this media. The major components of this matrix are ECM proteins, such as laminin, collagen IV, entactin, and heparan sulphate proteoglycan, as well as growth factors, such as bFGF and EGF. MATRIGEL has previously been used to induce and maintain differentiation of endothelial, muscle, and neuronal cells, and for the development of three-dimensional matrix and cell invasion systems in vitro. (Gargett et al., 2000, Hum. Reprod. 15:293-301; Voura et al., 1998, Microsc. Res. Tech. 43: 265-275).
VEC were cultured both on BIOCOAT MATRIGEL matrix-coated tissue culture flasks (Becton Dickinson), and on MATRIGEL matrix prepared from pre-frozen gels that were thawed, kept at +4° C. before use and solidified at +37° C. for 3-16 hours before testing. The optimal time to detect the formation of tubules and capillary-like networks on MATRIGEL was from 3-6 hours. (Gargett et al., 2000, Hum. Reprod. 15:293-301; Voura et al., 1998, Microsc. Res. Tech. 43: 265-275). […] No viable VEC were found in MATRIGEL cultures after 48 hours.

The test system of assay [3] is HUVEC. In words: HUVEC morphology by phase contrast microscopy. Type of assay: cell-based, human. The note with it: HUVEC on collagen I, 48 hours; 10 μM or 1 μM docetaxel, 10 μM thalidomide, FIG. 11. The procedure: as §1
The subject of assay [4] is HUVEC. As to the kind of experiment: APO-DIRECT assay (late apoptosis, DNA breaks). The assay is classed as cell-based, human. Conditions: collagen I, 1 μM docetaxel, 48 hours, FIG. 8. The text has this:
The APO-DIRECT assay (Phoenix Flow Systems, San Diego, Calif.) utilizes single step fluorescent labeling and flow cytometric analysis by taking advantage of the multitude of 3′-hydroxyl termini of DNA present in apoptotic cells. One of the hallmarks of cellular self-destruction by apoptosis is the activation of nucleases that degrade the higher order chromatin structure of the DNA into fragments of 50 to 300 kilobases. These DNA fragments result in the appearance of “DNA laddering” when the DNA is analyzed by agarose gel electrophoresis. (Arends et al., 1990, Am. J. Pathol. 136:593-608). Apoptotic cells were identified by labeling the 3′-hydroxy ends of double- and single-stranded DNA breaks with fluorescent-tagged deoxyuridine triphosphate nucleotides (F-dUTP) using the enzyme deoxynucleotidyl transferase (TdT). […] The APO-DIRECT assay identified cells undergoing apoptosis at a later stage of programmed cell death than assays based on Annexin V binding.
In these experiments, HUVEC were incubated on collagen I for 48 hours in the presence of 1 μM docetaxel. The cells were fixed in paraformaldehyde and stored at −20° C. until use. […] The gating display was created according to Phoenix Flow protocol using Linear Red Fluorescence (DNA) on the X-axis and Log green Fluorescence (d-UTP) on the Y-axis. […]

Assay [5] relates to VEC derived from fresh tumor specimens. In words: Microarray analysis of drug-resistant versus drug-sensitive tumor-derived VEC sorted by Annexin V. The assay is classed as cell-based, human. Conditions: 0.1 μM docetaxel, 24 hours. The procedure: Anti-angiogenesis agents were screened using highly purified populations of endothelial cells derived from fresh tumor specimens. 2×10^7 VEC that were sorted for the expression of CD31 and CD105 endothelial markers were exposed to 0.1 μM docetaxel or 50 μM BSO, a proprietary drug. […] After 24 hours of drug exposure in cytophobic plates, VEC were sorted under sterile conditions using the above Annexin V-flow cytometry protocol. To ensure the purity of sorted VEC, the sorted populations were reanalyzed by flow cytometry for Annexin V and PI staining, as shown in FIG. 17. The purity of the sorted VEC populations varied between 97.3% and 99.1%. Total RNA was isolated from both resistant (Annexin V−/PI−) and sensitive (Annexin V+/PI−) populations, and cDNA probes were hybridized with Research Genetics GeneFilters© microarrays containing over 40,000 known human gene sequences. In order to compare the microarray results for the drug-resistant sample to the drug-sensitive sample, FIG. 18 is a two-dimensional scatter plot constructed of intensity values from the microarrays normalized by converting to the fraction of total intensity and then log transformed, which was used to compare the microarray results for the resistant and sensitive sample. Diagonal lines were utilized that separated the genes that have more than a 2-fold difference in expression level.

The test system of assay [6] is HUVEC. In words: Annexin V staining test for endothelial cells undergoing apoptosis (Annexin V-FITC/PI flow cytometry). Type of assay: cell-based, human. Conditions: HUVEC on collagen I, 0.0011 μM mM docetaxel, FIG. 6. The text has this: Altered cell attachment and loss of membrane integrity are among the earliest morphological features of programmed cell death. Annexin V, a 35-36 kDa Ca^2+-dependent phospholipid-binding protein, has a high affinity for the membrane phospholipid phosphatidylserine, normally located on the inner leaflet of the cell membrane (Raynal et al., 1994, Biochem. et Biophys. Acta. 1197:63-93). In cells undergoing apoptosis, however, phosphatidylserine is translocated to the outer leaflet of the plasma membrane and can be detected by Annexin V labeled with fluorescent dyes, such as FITC. To distinguish truly apoptotic cells from necrotic cells, Annexin V was used in combination with PI exclusion. In this assay, HUVEC undergoing apoptosis are Annexin V-positive, PI negative, while necrotic cells are Annexin V-positive, PI-positive.
As an example, HUVEC cells were cultured on collagen I and treated with 0.0011 μM mM docetaxel and then stained with both Annexin V and PI. Annexin V binding and PI staining of nuclei were documented for the same cell population using the PharMingen Annexin V flow cytometry assay and two-color immunofluorescence on live HUVEC monolayers. Staining with Annexin V-FITC was visible on the membrane as green fluorescence, and PI staining was visible in the nucleus as red fluorescence. […] In a separate experiment, HUVEC cells were transferred into Ultra Low Attachment 24-well plates (Corning, Inc., Corning N.Y.) covered with a layer of hydrogel that is hydrophilic and neutrally charged. The hydrogel surface inhibits non-specific immobilization, and therefore subsequent cell attachment, because proteins and other biomolecules passively adsorb to surfaces through hydrophobic and ionic interactions. Because of the lack of appropriate ECM providing anti-apoptotic signals, HUVEC undergo rapid apoptosis under these culture conditions. For example, 24 hours after their transfer into Ultra Low Attachment plates, 61% of HUVEC cells were undergoing an (Annexin V-positive, PI-negative) apoptotic process (shown in FIG. 7).
On the technique in general: Flow cytometry measures light scatter and fluorescence of single cells or particles in a stream.

Setting [7] is: RESISTANT, resistant versus sensitive VEC.
Where [8] appears, read: SENSITIVE, resistant versus sensitive VEC.

Structures are written as SMILES.

Consider `Cc1cc(C)c(/C=C2\C(=O)Nc3ccccc32)[nH]1` [SU5416], for which the IC50 with endothelial cells was 1000 nM.

For the molecule `Cc1[nH]c(/C=C2\C(=O)Nc3ccccc32)c(C)c1CCC(=O)O` [SU6668], the IC50 with endothelial cells is 340 nM.

For `CC(=O)O[C@@]12CO[C@@H]1C[C@H](O)[C@@]1(C)C(=O)[C@H](O)C3=C(C)[C@@H](OC(=O)[C@H](O)[C@@H](NC(=O)OC(C)(C)C)c4ccccc4)C[C@@](O)([C@@H](OC(=O)c4ccccc4)[C@H]21)C3(C)C` [docetaxel], the Dil-ac-LDL uptake result in the assay with HUVEC [1] is “very few docetaxel-treated HUVEC took up DIL-as-LDL”. Further, the “tubulogenesis on MATRIGEL” value in the assay with HUVEC [2] (10 μM, FIG. 13) was “complete absence of VEC-like tubules”. For the same molecule, the “tubulogenesis and capillary-like network formation on MATRIGEL” value in the assay with HUVEC [2] (lower doses (1, 0.1, 0.01, 0.001 μM)) was “inhibited tubulogenesis and capillary-like network formation”. In addition, in the assay on HUVEC [3], the “effect on cell morphology” value was “rounded and partially detached HUVEC”. For the same molecule, in the assay with HUVEC [4], the “HUVEC that had undergone apoptosis” value was 73%. In assay [5] (setting [7]), the “Ratio, Human HLK1 mRNA, complete cds” value stood at 3.6; the “Ratio, Interferon regulatory factor 5” value is 4.4; the “Ratio, Keratin, type I cytoskeletal 14” value worked out at 4; the “Ratio, Small proline-rich protein 1B (cornifin)” value is 3.6. Moreover, the “Ratio, Tuberin” value in assay [5] (setting [7]) is 3.2. In assay [5] (SENSITIVE), the “Ratio, Fibrinogen beta-chain precursor” value was found to be 4.9 and the “Ratio, Human TWIK-related acid-sensitive K + channel gene” value turned out to be 5.9. For the same molecule, in assay [5] (setting [8]), the “Ratio, Human metallothionein (MT)I-F gene” value is on record as 6.2; the “Ratio, Human mucosal addressin cell adhesion molecule” value was determined as 9.5; the “Ratio, Human putative fatty acid desaturase” value came out at 5.2. In addition, in the assay with HUVEC [6], the “cells dead due to either apoptosis or necrosis” value stood at 16%; the “cells intact (Annexin V-negative, PI-negative)” value was determined as 80%; the cells undergoing apoptosis is reported as 3.5%.

As to `O=C1CCC(N2C(=O)c3ccccc3C2=O)C(=O)N1` (stereo not shown) [thalidomide], in the assay on HUVEC [2] (10, 1, 0.1, 0.01 and 0.001 μM), the “effects on HUVEC tubulogenesis on MATRIGEL” value was “No effects”. Also, the “effect on cell morphology” value in the assay with HUVEC [3] is given as “no effect on HUVEC morphology”.
